Columns and labels:
Format in all cases: ADME, organism-based
[1] = Plasma concentration in Sprague-Dawley rat at 2.5 umol/kg, sc after 1 hr; conditions: read-out: Drug uptake
Brain = assay: Drug level in Sprague-Dawley rat brain at 2.5 umol/kg, sc after 1 hr; conditions: in vivo
[2] = Drug level in brain to plasma in Sprague-Dawley rat at 2.5 umol/kg, sc after 1 hr

concentration at 1 h [1] [nM]	Drug uptake (Brain) [nmol/kg]	Kp at 1 h [2]	Compound
103	202	1.9	COc1ccccc1C(CNS(=O)(=O)c1ccc(Cl)cc1)N1CCCCCC1 (centres undefined)
105	168	1.6	COc1ccccc1C(CNS(=O)(=O)c1ccc(F)c(Cl)c1)N1CCCCCC1 (centres undefined)
72	154	2.1	COc1ccccc1C(CNS(=O)(=O)c1ccc(C(F)(F)F)cc1)N1CCCCCC1 (centres undefined)

From ChEMBL document CHEMBL1208781, “Identification of N-(2-(azepan-1-yl)-2-phenylethyl)-benzenesulfonamides as novel inhibitors of GlyT1” (Bioorg Med Chem Lett, 2010)
